Results published in publication PMC10177380 (Cancers, 2023).
Read-outs that look alike come from different tables or passages of the source.

Assays:
A2780 ovarian = tested on: A2780 ovarian; design: method as in PMID 36296713, PMID 36142383; settings: cited from earlier work
multiple cell lines = tested on: multiple cell lines; design: method as in PMID 36296713, PMID 36142383; settings: mean over all cell lines tested; cited from earlier work
MCF7 breast = tested on: MCF7 breast; design: method as in PMID 36296713, PMID 36142383; settings: cited from earlier work
[1] = tested on: ADDP ovarian variant (cisplatin-resistant A2780 clone); design: method as in PMID 36296713, PMID 36142383; settings: cited from earlier work
H460 lung = tested on: H460 lung; design: method as in PMID 36296713, PMID 36142383; settings: cited from earlier work
[2] = tested on: non-tumour derived MCF10A breast line; design: method as in PMID 36296713, PMID 36142383; settings: cited from earlier work
U87 glioblastoma = tested on: U87 glioblastoma; design: method as in PMID 36296713, PMID 36142383; settings: cited from earlier work
HT29 colon cells = tested on: HT29 colon cells; design: method as in PMID 36296713, PMID 36142383; settings: cited from earlier work
A431 skin = tested on: A431 skin; design: method as in PMID 36296713, PMID 36142383; settings: cited from earlier work
HT29 colon = tested on: HT29 colon; design: method as in PMID 36296713, PMID 36142383; settings: cited from earlier work
MCF10A / Du145 [3] = tested on: MCF10A / Du145; design: method as in PMID 36296713, PMID 36142383; settings: GI50 in MCF10A/GI50 in Du145, from data of previous studies; cited from earlier work
MIA pancreas = tested on: MIA pancreas; design: method as in PMID 36296713, PMID 36142383; settings: cited from earlier work
BE2C neuroblastoma = tested on: BE2C neuroblastoma; design: method as in PMID 36296713, PMID 36142383; settings: cited from earlier work
Du145 prostate = tested on: Du145 prostate; design: method as in PMID 36296713, PMID 36142383; settings: cited from earlier work
[4] = Stability in 10 mM PBS monitored by HPLC; format: physicochemical; settings: 10 mM PBS pH ~7.4, 36 h, room temperature and 37 °C
Description: The stability measurements for complexes 1–6 were determined by dissolving each complex in 10 mM aqueous phosphate buffered saline (PBS) solution at pH ~7.4 and incubated at room temperature and at 37 °C for 36 h. The experiments were monitored via HPLC.
Additional stability studies for 1–6 were undertaken using 10 mM PBS (~7.4 pH) as the aqueous solution, but without the presence of a reducing agent such as AsA. This was only to show whether the complexes would be stable in aqueous solution for long hours. Each complex was dissolved in PBS and incubated at room temperature and at 37 °C for 36 h. After the incubation, all samples were analysed through HPLC. […] After 36 h at room temperature, peak traces of platinum(IV) complexes and the platinum(II) precursors, as well as the dissociated ACE ligand, were present, as shown in Figure S77. […] From this, it was reasoned that the larger the ligand conjugated to our platinum(IV) scaffold (i.e., ACE), the more susceptible the resulting derivatives (4–6) are to reduction, as they reduce even without a reducing agent. This parallels the results from the reduction experiments above, where 4–6 were the quickest to reduce in the presence of AsA.

[5] = Selectivity cytotoxicity index (GI50 in MCF10A/GI50 in Du145); settings: human, MCF10A normal breast cells and Du145 prostate cancer cells
[6] = design: method as in earlier work; settings: cited from earlier work
[7] = Lipophilicity by HPLC (log kw); format: physicochemical; settings: extrapolated from log k versus % organic solvent
Description: Lipophilicity measurements were undertaken using HPLC, as previously described (see Supplementary Materials).
Lipophilicity measurements were undertaken using HPLC as previously described. The complexes were eluted at different isocratic ratios. The capacity factor (k) was calculated using the retention times of the complexes. A standard curve was generated to determine the log value of the capacity factor (log k), and this was performed by plotting the log k value at each isocratic ratio versus the percentage of the organic solvent used in solvent (Figure S61). This produced a linear expression that allowed for the extrapolation of log kw. Log kw is the measure of lipophilicity; therefore, a greater value corresponds to increased lipophilicity.

MCF10A / Du145 [8] = test: Selectivity cytotoxicity index (GI50 in MCF10A/GI50 in Du145); settings: GI50 in MCF10A/GI50 in Du145
[9] = tested on: PC3 (prostate carcinoma) tumour; design: method as in PMID 18997969; settings: mice with PC3 tumour, cited from earlier work; for reduction in mean tumour mass: relative to vehicle-treated control
[10] = tested on: peritoneal carcinomatosis; design: method as in PMID 20535526; settings: BD-IX rats, intravenous and intraperitoneal routes; cited from earlier work

Row | SMILES | GI50 (A2780 ovarian) [nM] | GI50 (multiple cell lines) [nM] | GI50 (MCF7 breast) [nM] | GI50 [1] [nM] | GI50 (H460 lung) [nM] | GI50 [2] [nM] | GI50 (U87 glioblastoma) [nM] | ROS Production (HT29 colon cells; HT29, 24 h) [RFU] | ROS Production (HT29 colon cells; HT29, 48 h) [RFU] | ROS Production (HT29 colon cells; HT29, 72 h) [RFU] | GI50 (A431 skin) [nM] | GI50 (HT29 colon) [nM] | Selectivity Cytotoxicity Index (SCI) (MCF10A / Du145 [3]) | GI50 (MIA pancreas) [nM] | GI50 (BE2C neuroblastoma) [nM] | GI50 (Du145 prostate) [nM] | log kw Values [7] | Selectivity Cytotoxicity Index (SCI) (MCF10A / Du145 [8]) | other results
1 | Cc1cc2c3c4c1=CC=C[N]4[Pt+2][N]3C=CC=2.N[C@H]1CCCC[C@@H]1N [Complex 5MESS] | 61 ± 10 | 117 ± 12 | 200 ± 12 | 34 ± 2 | 41 ± 5 | 30 ± 2 | 320 ± 26 | 204 ± 4 | 205 ± 3 | 188 ± 3 | 120 ± 25 | 33 ± 4 | 1.36 | 48 ± 2 | 270 ± 38 | 22 ± 3 | – | – | –
2 | COc1ccc2cc([C@H](C)C(=O)[O][Pt+2]3([OH])[N]4C=CC=c5cc(C)c6c(c54)[N]3C=CC=6)ccc2c1.N[C@H]1CCCC[C@@H]1N (some centres unmarked) [Complex 2, [Pt^IV(5-Mephen)(SS-DACH)(NPX)(OH)]^2+] | – | – | – | – | – | – | – | – | – | – | – | – | – | – | – | – | – | – | stability in PBS [4]: some traces of precursor platinum(IV) complexes and the dissociated NPX ligand were evident
3 | COc1ccc2c(c1)c(CC(=O)OCC(=O)O)c(C)n2C(=O)c1ccc(Cl)cc1 [ACE, acemetacin] | – | – | – | – | – | – | – | – | – | – | – | – | – | – | – | – | – | – | selectivity ratio [5]: 1; reported lipophilicity values [6]: 4.49
4 | COc1ccc2c(c1)c(CC(=O)OCC(=O)[O][Pt-2]13([OH])([NH2+][C@H]4CCCC[C@@H]4[NH2+]1)[n+]1cccc4c(C)c(C)c5ccc[n+]3c5c41)c(C)n2C(=O)c1ccc(Cl)cc1 [Complex 6, [Pt^IV(5,6-Me2phen)(SS-DACH)(ACE)(OH)]^2+] | – | – | – | – | – | – | – | – | – | – | – | – | – | – | – | – | 2.29 | 15.5 | –
5 | COc1ccc2c(c1)c(CC(=O)OCC(=O)[O][Pt-2]13([OH])([NH2+][C@H]4CCCC[C@@H]4[NH2+]1)[n+]1cccc4cc(C)c5ccc[n+]3c5c41)c(C)n2C(=O)c1ccc(Cl)cc1 [Complex 5, [Pt^IV(5-Mephen)(SS-DACH)(ACE)(OH)]^2+] | – | – | – | – | – | – | – | – | – | – | – | – | – | – | – | – | 2.16 | 15.4 | –
6 | N.N.[Cl][Pt][Cl] [Cisplatin, cis-diamminedichloroplatinum(II)] | 1000 ± 100 | 5840 ± 610 | 6500 ± 800 | 28000 | 900 ± 200 | 5200 ± 520 | 3800 ± 1100 | – | – | – | 2400 ± 300 | 11300 | – | 7500 ± 1300 | 1900 ± 200 | 1200 ± 100 | – | – | reduction in mean tumour mass [9]: comparable reduction in mean tumour mass
7 | COc1ccc2c(c1)c(CC(=O)OCC(=O)[O][Pt-2]13([OH])([NH2+][C@H]4CCCC[C@@H]4[NH2+]1)[n+]1cccc4ccc5ccc[n+]3c5c41)c(C)n2C(=O)c1ccc(Cl)cc1 [Complex 4, [Pt^IV(phen)(SS-DACH)(ACE)(OH)]^2+] | – | – | – | – | – | – | – | – | – | – | – | – | – | – | – | – | 1.93 | 2.40 | –
8 | C1=C[N]2[Pt+2][N]3C=CC=c4ccc(c2c43)=C1.N[C@H]1CCCC[C@@H]1N [PHENSS] | 230 ± 30 | 434 ± 110 | 1500 ± 500 | 190 ± 47 | 360 ± 35 | 300 ± 58 | 980 ± 270 | 174 ± 2 | 172 ± 9 | 176 ± 7 | 480 ± 170 | 160 ± 45 | 3.00 | 200 ± 57 | 380 ± 46 | 100 ± 38 | – | – | reduction in mean tumour mass [9]: comparable reduction in mean tumour mass; toxic side effects [9]: did not elicit any toxic side effects
9 | Cc1c(C)c2cccnc2c2ncccc12.N[C@H]1CCCC[C@@H]1N.[Pt] [Complex 56MESS, [Pt^II(5,6-Me2phen)(SS-DACH)]^2+] | 76 ± 57 | 36 ± 10 | 93 ± 44 | 13 ± 2 | 21 ± 2 | 16 ± 1 | 35 ± 6.4 | 240 ± 5 | 218 ± 3 | 255 ± 4 | 29 ± 1 | 10 ± 1.6 | 3.48 | 13 ± 2 | 59 ± 4 | 4.6 ± 0.4 | – | – | toxicity [10]: induced nephrotoxicity; tumour suppression response [10]: did not demonstrate tumour suppression response
